{
  "source": "patent US20090029355A1",
  "about": "“Abnormalities of Phosphatase 2A (PP2A) for Diagnosis and Treatment of Alzheimer's Disease” (priority 2004, published 2009)",
  "key": {"[1]": {"test_system": "Erk1/2 phosphorylation in AC cells", "experiment": "Erk1/2 phosphorylation on Western blots in AC fibroblasts", "format": "cell-based, human", "conditions": "about 10 nM OA, about 10 nM BK, about 10 min", "experimental": "(§1) After serum-starving overnight, cells are treated as such: 1) BK treatment for about 10 min, 2) pretreatment with about 10 nM OA for about 15 min followed by BK treatment and another dose of OA for about 10 min. Reactions are terminated, cells are lysed in a lysis buffer, and the extent of Erk1/2 phosphorylation and levels of the total Erk1/2 are determined using Western blots. After normalizing with signals of the total Erk1/2, the ratio of BK-stimulated Erk1/2 phosphorylation in the presence and absence of OA is calculated. […]\n(§2) Erk1/2 phosphorylation from different treatments was determined on Western blots using an anti-phospho-Erk1/2 antibody (Cell Signaling Technology), the total amount of Erk1/2 protein loaded on the SDS gel was determined by an anti-regular Erk1/2 antibody (Upstate Biotechnology), and was used to normalize the detected phospho-Erk1/2 signals.\n(§3) (1) Quantitative PCR values for PP2A mRNA in each sample of 19 AC and 19 AD cell lines were normalized by those of GPDH in the same sample. […] The densitometric values for PP2A were normalized by those of annexin 11 and quantified with UN-SCAN-IT software (Silk Scientific, Inc.) (3) To assess Erk1/2 phosphorylation, ratios for phospho-Erk1/2 over those of the total Erk1/2 were calculated. […]"}, "[2]": {"test_system": "Erk1/2 phosphorylation in AD cells", "experiment": "Erk1/2 phosphorylation on Western blots in AD fibroblasts", "format": "cell-based, human", "conditions": "about 10 nM OA, about 10 nM BK, about 10 min", "experimental": "as §1, §2, §3"}},
  "note": "Entries after “also recorded” stand apart in the source; their conditions may differ.",
  "data": [
    {"compound": "C=C1[C@@H](O)[C@@H]2O[C@]3(CC[C@H](/C=C/[C@@H](C)[C@@H]4CC(C)=C[C@@]5(O[C@H](C[C@@](C)(O)C(=O)O)CC[C@H]5O)O4)O3)CC[C@H]2O[C@@H]1[C@@H](O)C[C@H](C)[C@H]1O[C@@]2(CCCCO2)CC[C@H]1C", "note": "[OA, okadiac acid]", "values": [
      {"measurement": "Erk1/2 dephosphorylation after BK stimulation in the presence of OA", "setting": "[1]", "result": "inhibited Erk1/2 dephosphorylation; also recorded: significantly inhibited"},
      {"measurement": "BK-stimulated Erk1/2 phosphorylation on addition of OA", "setting": "[2]", "result": "did not further increase Erk1/2 phosphorylation"}
    ]}
  ]
}
